Results as given in ChEMBL document CHEMBL1201862, “PubChem BioAssay data set” (2004).
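96-well plates; 48 h exposure; 5 concentrations. Endpoints by linear interpolation between flanking doses. Not reached: highest tested concentration assigned. GI50 is the concentration that inhibits growth by half.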 Active and inactive are the calls of the source. Rule as the data show it: active = GI50 up to about 1.1 µM and inactive = higher.

Key:
Experiment in all cases: DTP human tumour cell line panel, 48 h
SF-268 = test system: SF-268
HT-29 = test system: HT-29
Hs-578T = test system: Hs-578T
A498 = test system: A498
NCI-H23 = test system: NCI-H23
NCI-H460 = test system: NCI-H460
NCI/ADR-RES = test system: NCI/ADR-RES
HOP-92 = test system: HOP-92
U-251 = test system: U-251
CCRF-CEM = test system: CCRF-CEM
T47D = test system: T47D
M14 = test system: M14
OVCAR-5 = test system: OVCAR-5
DU-145 = test system: DU-145
HL-60 = test system: HL-60
HCT-116 = test system: HCT-116
SN12C = test system: SN12C
RXF 393 = test system: RXF 393
BT-549 = test system: BT-549
MCF7 = test system: MCF7

Compound | GI50 (SF-268) | GI50 (HT-29) | GI50 (Hs-578T) | GI50 (A498) | GI50 (NCI-H23) | GI50 (NCI-H460) | GI50 (NCI/ADR-RES) | GI50 (HOP-92) | GI50 (U-251) | GI50 (CCRF-CEM) | GI50 (T47D) | GI50 (M14) | GI50 (OVCAR-5) | GI50 (DU-145) | GI50 (HL-60) | GI50 (HCT-116) | GI50 (SN12C) | GI50 (RXF 393) | GI50 (BT-549) | GI50 (MCF7)
CCOC(=O)C1CCCN1C(=O)c1ccccc1Cl (stereo not given) | > 100 µM (inactive) | > 100 µM (inactive) | > 100 µM (inactive) | > 100 µM (inactive) | > 100 µM (inactive) | > 100 µM (inactive) | > 100 µM (inactive) | 75.9 µM (inactive) | > 100 µM (inactive) | > 100 µM (inactive) | > 100 µM (inactive) | > 100 µM (inactive) | > 100 µM (inactive) | > 100 µM (inactive) | > 100 µM (inactive) | > 100 µM (inactive) | > 100 µM (inactive) | > 100 µM (inactive) | > 100 µM (inactive) | > 100 µM (inactive)
COC(=O)c1c(C)cccc1C1CN=NC12Cc1c(C)cccc1C2=O (stereo not given) | > 100 µM (inactive) | 90.2 µM (inactive) | 80.2 µM (inactive) | 37.8 µM (inactive) | 60 µM (inactive) | 97.3 µM (inactive) | 59.6 µM (inactive) | 19.9 µM (inactive) | > 100 µM (inactive) | > 100 µM (inactive) | 37.9 µM (inactive) | 83.2 µM (inactive) | > 100 µM (inactive) | > 100 µM (inactive) | 34.9 µM (inactive) | 68.7 µM (inactive) | > 100 µM (inactive) | > 100 µM (inactive) | > 100 µM (inactive) | 55.2 µM (inactive)
COc1cc2cc(C(=O)N3C[C@H](CCl)c4c3cc(O)c3ccccc43)[nH]c2c(OC)c1OC | 0.117 µM (active) | 0.185 µM (active) | 0.234 µM (active) | 0.248 µM (active) | 0.0453 µM (active) | 0.042 µM (active) | 0.136 µM (active) | 0.309 µM (active) | 0.1 µM (active) | 0.207 µM (active) | 1.71 µM (inactive) | 0.159 µM (active) | 0.264 µM (active) | 0.628 µM (active) | < 0.01 µM (active) | 0.147 µM (active) | 0.0133 µM (active) | 0.0459 µM (active) | 0.236 µM (active) | 0.0335 µM (active)
